Laboratory results: US10265303B2, “Hyperphenylalaninemia and treatments thereof” (BERGEN TEKNOLOGIOVERFØRING AS, priority 2015, dated 2019)
Where a chain is given by its changes, count along the chain named.

Assays:
hPAH = biological target: T1, hPAH (Homo sapiens, UniProt P00439); assay: SPR screening and affinity determination on immobilized hPAH (Biacore T200); assay type: binding; details: for Kd: SPR, 25° C., compound 0-500 μM in 5% DMSO, affinities said to be overestimated, relative KD reliable, read-out: KD (μM) ± SER
T1 sequence (P00439 1-452): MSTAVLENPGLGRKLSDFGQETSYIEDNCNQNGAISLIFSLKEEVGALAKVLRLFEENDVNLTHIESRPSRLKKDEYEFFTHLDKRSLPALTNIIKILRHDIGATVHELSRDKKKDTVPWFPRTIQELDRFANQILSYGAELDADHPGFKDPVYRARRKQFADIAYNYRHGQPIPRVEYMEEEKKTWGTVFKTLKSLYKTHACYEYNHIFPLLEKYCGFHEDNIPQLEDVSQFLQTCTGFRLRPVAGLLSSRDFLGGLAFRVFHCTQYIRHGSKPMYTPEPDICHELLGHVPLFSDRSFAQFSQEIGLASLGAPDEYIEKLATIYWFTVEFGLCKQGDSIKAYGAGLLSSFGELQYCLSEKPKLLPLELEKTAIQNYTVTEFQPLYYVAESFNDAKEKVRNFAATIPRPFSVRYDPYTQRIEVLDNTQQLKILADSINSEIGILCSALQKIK
Protocol: For detailed determination of binding affinity of Compound 53 and derivatives (FIG. 4) SPR was performed on a Biacore T200 (GE Healthcare Life Sciences) at a temperature of 25° C. A hPAH solution at 0.08 μg/μl in a final volume of 200 μl in acetate buffer pH 5.0 was immobilized onto series S sensor chip CM5 by the standard amine coupling procedure at a flow rate of 30 μl/min and PBS-P+ buffer as running buffer aiming for RU 20000. After the coupling reaction the surface of the sensor chip was washed to eliminate unbound species with HBS buffer (0.01 M NaHepes pH 7.4, 0.15 M NaCI) at steady flow of 20 μl/min for 1 hour until the baseline drift was around 0.05 RU/s; note that an early injection of 40 μl dithiothreitol (DTT) 10 mM in HBS allowed for this reduced washing time.
For the screening, compounds were assayed at a concentration of 200 μM, with 5% DMSO in duplicates, including negative controls with 5% DMSO, positive controls, with 200 μM BH2 and solvent correction was also performed. For KD calculations, a compound concentration 0-500 μM (in 5% DMSO) were applied at otherwise analogous experimental design and analyses were performed using Biacore T200 Evaluation Software, version 2.0 (GE Healthcare Life Sciences).
All the responses from the compounds of the screening were subjected to blank subtraction (negative control 5% DMSO), molecular weight adjustment and solvent correction to account for differences in bulk response. Next a cut-off value for the screening was selected based on the response of the positive control of our experiments: RU BH2+3*SD (2.88+3*1.79=8.27). In this manner, from the 11 derivatives of Compound 53 tested (see FIG. 4) we weeded out those compounds with a lower response than 8.27, namely #53.2, #53.9 and #53.11.
In addition and for the rest of the compounds which continued our workflow, binding affinities were determined and the results are shown in the following table. The selected conditions to measure affinity are selected for high throughput measurements, but the affinities are overestimated though the relative KD for the different compounds are reliable.

human wild-type PAH [1] = biological target: T2, human wild-type PAH (Homo sapiens, UniProt P00439); assay: PAH activity in lysates of HEK293 cells permanently expressing human wild-type PAH; assay type: cell-based; details: 1% DMSO, 8 h; for PAH activity-cells (%): 0.04 mg/ml compound, Table 3; for increase of hPAH activity with respect to the control (FIG. 6): average compound concentration 144.9 μM
T2 construct: expressed in transfected cells
T2 sequence (P00439 1-452): T1 sequence (P00439 1-452)
Protocol: (§1) Human embryonic kidney cells (HEK293; Life Technologies™) permanently expressing WT-hPAH, prepared with the Flp-In system (Life Technologies™) were kindly provided by Per Knappskog, Haukeland University Hospital. About 1 million cells were grown in DMEM medium containing 4.5 g/l glucose, 10% (v/v) fetal calf serum, 0.25 mg/ml gentamycine, 2 mM L-glutamine and 50 μg/ml hygromycin B, and after 24 h medium was changed and the test compounds were added at a concentration of 0.02 mg/ml (1% DMSO). Eight hours later, the cells were harvested, and the pellets frozen in dry ice and stored at −80° C. […] To prepare the cell extracts, the frozen cell pellets were thawed in TBS (+protease inhibitor) buffer and cells were homogenized with 0.1% TX-100, incubated 15 minutes at 4° C. and extracts were clarified by centrifugation 20000 g for 15 min at 4° C. Protein concentrations were normalized using a Direct Detect Spectrometer (Merck Millipore).
The 7 selected compounds as well as the first generation pharmacological chaperones (Compounds III and IV) were further analyzed in the presence and absence of BH2 (200 μM), added as precursor of BH4, to account for additive effects. […]
as §1, with “and the compounds were” for “and the test compounds were”, “concentration of 0.04 mg/ml (1%” for “concentration of 0.02 mg/ml (1%”, “for 15 minutes at 4°” for “for 15 min at 4°”

human wild-type PAH [2] = biological target: T2, human wild-type PAH; assay: PAH immunoreactive protein level (Western blot) in HEK293 cells permanently expressing human wild-type PAH; assay type: cell-based; details: BH2 200 μM alone, 8 h, 1% DMSO
Protocol: as §1
The 7 selected compounds as well as the first generation pharmacological chaperones (Compounds III and IV) were further analyzed in the presence and absence of BH2 (200 μM), added as precursor of BH4, to account for additive effects. A higher concentration of compound was also used 0.04 mg/ml (average of 116.7 μM) at otherwise same experimental conditions.

I65T-PAH = biological target: T3, I65T-PAH (Homo sapiens, UniProt P00439, I65T); assay: PAH protein level and activity in HEK293 EBNA cells transiently expressing PKU mutant I65T; assay type: cell-based; details: 200 μM, 24 h, 1% DMSO
T3 construct: expressed in transfected cells; host or cells: HEK293 EBNA, transient, pcDNA3-PAH
T3 sequence (P00439 1-452 I65T): T1 sequence (P00439 1-452) with I65T
Protocol: (§2) Cell lysates were prepared as indicated above.

R261Q-PAH = biological target: T4, R261Q-PAH (Homo sapiens, UniProt P00439, R261Q); assay: PAH protein level and activity in HEK293 EBNA cells transiently expressing PKU mutant R261Q; assay type: cell-based; details: 200 μM, 24 h, 1% DMSO
T4 construct: expressed in transfected cells; host or cells: HEK293 EBNA, transient, pcDNA3-PAH
T4 sequence (P00439 1-452 R261Q): T1 sequence (P00439 1-452) with R261Q
Protocol: as §2

[3] = biological target: dihydrofolate reductase (DHFR); details: read-out: IC50 (DHFR); ChEMBL database; cited from earlier work

Compound	Kd (hPAH) [µM]	PAH activity-cells (%) (human wild-type PAH [1])	other results
Nc1nc2c(c(=O)[nH]1)C(c1ccc(Cl)cc1Cl)CC(=O)N2 (racemic) [c53.10]	22.9 ± 2.7	155 ± 13	increase of hPAH activity with respect to the control (FIG. 6) (human wild-type PAH [1]): around 40%
COc1ccc(C2CC(=O)Nc3nc(N)[nH]c(=O)c32)cc1OC (racemic) [c53.16]	76.3 ± 26.4	146 ± 10	–
Nc1nc2c(c(=O)[nH]1)C(c1ccc3c(c1)OCO3)CC(=O)N2 (racemic) [c53.17]	11 ± 3.7	206 ± 10	–
COc1ccc(C2CC(=O)Nc3nc(N)[nH]c(=O)c32)cc1 (racemic) [c53.19]	37.2 ± 23.7	170 ± 17	–
COc1cccc(C2CC(=O)Nc3nc(N)[nH]c(=O)c32)c1 (racemic) [c53.20]	23.2 ± 11.7	206 ± 5	–
Nc1nc2c(c(=O)[nH]1)C(c1ccc(Cl)cc1)CC(=O)N2 (racemic) [c53.22]	30.1 ± 6.5	154 ± 16	–
CSc1nc2c(c(=O)[nH]1)C(c1ccc3c(c1)OCO3)CC(=O)N2 (racemic) [c53.26]	62.1 ± 30.7	109 ± 5	–
COc1cc(C2CC(=O)Nc3nc(N)ccc32)cc(Cl)c1OC (racemic) [c53.29]	191 ± 20	155 ± 7	–
COc1ccc(C2CC(=O)Nc3nc(N)ccc32)cc1O (racemic) [c53.31]	55.9 ± 6.7	125 ± 8	–
Nc1ccc2c(n1)NC(=O)CC2c1ccc2c(c1)OCCO2 (racemic) [c53.32]	102 ± 11	–	–
COc1ccc(C2CC(=O)Nc3nc(N)ccc32)c(OC)c1OC (racemic) [c53.33]	182 ± 32	–	–
Nc1nc2c(c(=O)[nH]1)C(c1ccc3c(c1)OCO3)CC(=O)N2 (racemic) [c53.35]	23.7 ± 5	–	–
Nc1nc2c(c(=O)[nH]1)C(c1cccc(Cl)c1)CC(=O)N2 (racemic) [c53.40]	11.6 ± 1.6	–	–
Nc1nc2c(c(=O)[nH]1)C(c1cccc3ccccc13)CC(=O)N2 (racemic) [c53.41]	12.6 ± 6.4	–	–
C[C@H](O)[C@H](O)C1=Nc2c(nc(N)[nH]c2=O)NC1 [BH2]	–	–	SPR screening response (blank-subtracted, MW-adjusted, solvent-corrected) (hPAH; 200 μM, 5% DMSO, duplicates, cut-off 8.27): 2.88 RU; stimulating effect on PAH activity (human wild-type PAH [1]; BH2 200 μM alone): 21.7%; stimulating effect on PAH protein (human wild-type PAH [2]): 24.8%; PAH activity, mutant I65T (I65T-PAH): increased; hPAH protein level, mutant I65T (I65T-PAH): increased; PAH activity, mutant R261Q (R261Q-PAH): increased; hPAH protein level, mutant R261Q (R261Q-PAH): increased
COc1cc(Cc2ccc(N)nc2N)cc(OC)c1O [CHEMBL 128600]	–	–	IC50 [3]: 10000 µM
COc1ccc(Cc2cnc(N)nc2N)cc1OC [c53.1]	104 ± 14	130 ± 8	–
COc1cc(Cc2ccc(N)nc2N)cc(OC)c1OC [c53.4]	45.2 ± 9.1	165 ± 28	increase of hPAH activity with respect to the control (FIG. 6) (human wild-type PAH [1]): around 40%
COc1cc(C(c2c[nH]c3ccccc23)c2c[nH]c3ccccc23)cc(OC)c1OC [c53.5]	370 ± 228	–	–
CCOc1ccc(Cc2cnc(S)nc2N)cc1 [c53.6]	103 ± 48.8	120 ± 12	–
Nc1ncc(Cc2ccc3c(c2)OCO3)c(N)n1 [c53.7]	6.9 ± 4.9	119 ± 5	–
Nc1nc(N)c(Cc2ccc3c(c2)OCO3)c(N)n1 [c53.14]	24.7 ± 12.1	175 ± 23	–
